A short description of the data set: phase 2 study: sudden withdrawal or missed doses of mitapivat, acute hemolysis. The data set is classed as in vivo, human. The method, then: Clinical studies have also shown that acute hemolysis with subsequent anemia can occur following abrupt interruption or discontinuation of mitapivat. […] For example, in a phase 2 study with 300 mg of mitapivat dosed twice daily, 3.8% of subjects experienced hemolysis upon sudden withdrawal of mitapivat, including 1 serious adverse event of acute hemolysis. […] Although the exact risk factors which make someone susceptible to acute hemolysis cannot be determined, it appears that the rapid loss of hemoglobin is an issue for these cases. Given the uncertainty as to who is likely to experience signs or symptoms of acute hemolysis (or subsequent anemia), it is important to develop means for mitigating such events.

For `O=C(c1ccc(NS(=O)(=O)c2cccc3cccnc23)cc1)N1CCN(CC2CC2)CC1` [mitapivat, N-(4-(4-(cyclopropylmethyl)piperazine-1-carbonyl)phenyl)quinoline-8-sulfonamide], for the setting “patients who missed only a few doses later in their treatment course”, the “events indicative of acute hemolysis after missed doses” value is on record as “did not experience events indicative of acute hemolysis”. Moreover, the “subjects who experienced hemolysis upon sudden withdrawal of mitapivat” value (phase 2 study, 300 mg mitapivat dosed twice daily, sudden withdrawal) came out at 3.8%. For the same compound, the “serious adverse event of acute hemolysis (number of events)” value (phase 2 study, 300 mg twice daily, sudden withdrawal, included in the 3.8%) turned out to be 1.

The values above are taken from patent publication US20240207254A1, “METHODS FOR TITRATING MITAPIVAT” (Agios Pharmaceuticals, Inc., priority 2021, published 2024).
